Measurements as given in patent US6121323A, “Bishydroxyureas” (3M Innovative Properties Company, priority 1997, dated 2000).

Each molecule was assayed on Leukotriene B4 production in rat blood (assay: Rat ex vivo Leukotriene B4 inhibition). Details: 50 mg/Kg oral, 2 hours post dose, ex vivo A23187 challenge.
Type: in vivo
Procedure: RAT EX VIVO LEUKOTRIENE B4 INHIBITION
The test method described below measures the ability of a compound when administrated orally to rats to inhibit the production of Leukotriene B4 in their blood which is drawn and challenged.
Rats (CD, male, non-fasted, 250 g) are lightly anesthetized with carbon dioxide and an approximately 0.75 mL sample of whole blood is obtained via cardiac puncture. The sample is dispensed into 12×75 mm polypropylene tubes containing 8-10 μL of 10,000 units/mL heparin, mixed and then maintained on ice. The rats are allowed to recover approximately one hour then dosed orally with compound dissolved in PEG 400 at a 5 mL/Kg volume. Five (5) rats are utilized per group. Two (2) hours post dose the rats are again anesthetized with carbon dioxide and the blood sampled again via cardiac puncture.
Duplicate 200 μL portions of blood are added to 1.0 mL polypropylene tubes. A 10 μL portion of 1 mM A23 187 Calcium Ionophore in dimethyl sulfoxide/Tris buffer is added to each tube. The tubes are gently vortexed then incubated in a 37° C. water bath for 30 minutes. The tubes are then centrifuged at 4000 rpm for 10 minutes. 50 μL portions of plasma are transferred to 1.0 mL tubes containing 200 μL of methanol. The tubes are vortexed then placed in the freezer overnight.
The tubes are removed from the freezer then centrifuged at 4000 rpm for 10 minutes. 20 μL portions of the methanol/plasma supernatant and 10 μl methanol dilutions of LTB4 standard are transferred to 96 well v-bottom microtiter plates. The plates are vacuum dried at 40° C. A 40 μL portion of LTB4 radioimmunoassay buffer is added to each well. The plate is bath sonicated for 5 minutes then assayed according to the manufacturer's instructions (Advanced Magnetics; Cambridge, Mass.). Percent inhibition values are obtained by comparing the level of LTB4 in the post-dose samples to the level in the pre-dose samples according to the equation below. [formula]
For `CN(O)C(=O)Nc1cccc(NC(=O)N(C)O)c1` [Example 7, 1,1'-(m-Phenylene)bis(3-hydroxy-3-methylurea)], the inhibition in vivo at 50 mg/kg was 59%. In the case of `CN(O)C(=O)N[C@H]1CC[C@H](NC(=O)N(C)O)CC1` [Example 9, trans-1,4-Cyclohexanebis(3-hydroxy-3-methylurea)], the inhibition in vivo at 50 mg/kg was 4%. `O=C(NCCCCCCNC(=O)N(O)Cc1ccccc1)N(O)Cc1ccccc1` [Example 10, 1,1'-Hexamethylenebis(3-hydroxy-3-benzylurea)] gave an inhibition in vivo at 50 mg/kg of 8%. In the case of `COc1cc(-c2ccc(NC(=O)N(C)O)c(OC)c2)ccc1NC(=O)N(C)O` [Example 11], the inhibition in vivo at 50 mg/kg was 4%.
